# Activity calls are given as the source filed them. The calls are words filed in the database; no cut-off is given here.
# Legend:
# Rattus norvegicus [1] = assay: Reduction in mean arterial blood pressure in normotensive anaesthetized Wistar rat at 0.3 mg/kg administered intracisternally; type: functional; set-up: scale not given: the % may be the effect or the level left
# Rattus norvegicus [2] = assay: Reduction in heart rate in normotensive anaesthetized Wistar rat at 0.3 mg/kg administered intracisternally; type: functional; set-up: scale not given: the % may be the effect or the level left
# [3] = molecular target: T1, Adrenergic receptor alpha-2 (Homo sapiens, UniProt P08913+P18825+P18089); assay: Displacement of [3H]RX821002 from human alpha2 adrenoceptor expressed in CHO cell membranes after 60 mins; type: cell-based
# T1 sequence (P08913 whole entry): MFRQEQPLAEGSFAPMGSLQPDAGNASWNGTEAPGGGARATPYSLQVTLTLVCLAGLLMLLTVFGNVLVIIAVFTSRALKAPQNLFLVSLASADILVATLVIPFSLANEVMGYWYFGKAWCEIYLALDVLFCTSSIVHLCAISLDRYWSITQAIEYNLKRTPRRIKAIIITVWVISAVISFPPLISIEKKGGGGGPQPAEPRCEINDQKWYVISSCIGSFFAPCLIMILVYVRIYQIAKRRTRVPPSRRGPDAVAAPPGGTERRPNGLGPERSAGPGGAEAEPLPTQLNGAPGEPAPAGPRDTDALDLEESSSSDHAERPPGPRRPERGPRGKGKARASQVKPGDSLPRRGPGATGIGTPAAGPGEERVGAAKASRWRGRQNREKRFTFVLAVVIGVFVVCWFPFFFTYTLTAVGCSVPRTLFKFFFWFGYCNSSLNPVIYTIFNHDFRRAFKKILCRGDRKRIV
# T1 sequence (P18825 whole entry): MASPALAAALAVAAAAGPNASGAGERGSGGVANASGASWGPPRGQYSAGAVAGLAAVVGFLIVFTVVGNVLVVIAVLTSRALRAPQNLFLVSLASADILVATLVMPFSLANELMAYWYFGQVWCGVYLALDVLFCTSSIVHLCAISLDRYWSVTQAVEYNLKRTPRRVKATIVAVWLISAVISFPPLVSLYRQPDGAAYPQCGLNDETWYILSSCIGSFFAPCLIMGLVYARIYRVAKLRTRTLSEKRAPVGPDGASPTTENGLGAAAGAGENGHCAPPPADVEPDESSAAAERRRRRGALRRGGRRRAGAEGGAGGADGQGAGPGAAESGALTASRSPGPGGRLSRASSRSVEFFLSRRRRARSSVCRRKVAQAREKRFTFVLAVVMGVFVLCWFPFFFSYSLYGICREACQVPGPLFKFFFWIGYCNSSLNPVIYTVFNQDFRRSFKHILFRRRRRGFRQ
# T1 sequence (P18089 whole entry): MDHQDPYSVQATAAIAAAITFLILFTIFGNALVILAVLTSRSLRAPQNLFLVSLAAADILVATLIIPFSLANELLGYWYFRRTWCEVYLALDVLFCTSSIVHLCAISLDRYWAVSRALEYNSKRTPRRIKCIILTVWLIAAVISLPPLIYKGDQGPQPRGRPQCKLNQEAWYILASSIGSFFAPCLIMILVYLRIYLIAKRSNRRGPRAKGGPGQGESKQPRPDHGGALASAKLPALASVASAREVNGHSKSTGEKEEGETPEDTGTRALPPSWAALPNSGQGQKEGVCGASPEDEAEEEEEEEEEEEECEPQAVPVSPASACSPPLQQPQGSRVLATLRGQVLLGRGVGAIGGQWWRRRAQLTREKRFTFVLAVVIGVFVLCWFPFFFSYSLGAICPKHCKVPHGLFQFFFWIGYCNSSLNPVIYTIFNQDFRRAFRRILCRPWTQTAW
# Rattus norvegicus [4] = assay: Reduction in heart rate in normotensive anaesthetized Wistar rat at 3 mg/kg, iv; set-up: scale not given: the % may be the effect or the level left
# Rattus norvegicus [5] = assay: Reduction in mean arterial blood pressure in normotensive anaesthetized Wistar rat at 3 mg/kg, iv; set-up: scale not given: the % may be the effect or the level left
# Nischarin = Nischarin (Rattus norvegicus, UniProt Q4G017); assay: Displacement of [125I] PIC from I1 imidazoline receptor in rat PC12 cells after 45 mins by gamma counting; type: cell-based, PC-12
# Rattus norvegicus [6] = assay: Reduction in heart rate in normotensive anaesthetized Wistar rat at 10 mg/kg, iv; set-up: scale not given: the % may be the effect or the level left
# Rattus norvegicus [7] = assay: Reduction in mean arterial blood pressure in normotensive anaesthetized Wistar rat at 10 mg/kg, iv; set-up: scale not given: the % may be the effect or the level left
# Rattus norvegicus [8] = assay: Reduction in heart rate in normotensive anaesthetized Wistar rat at 10 mg/kg, iv; type: functional; set-up: scale not given: the % may be the effect or the level left
# CHO = assay: Selectivity ratio of Ki for I1 imidazoline receptor in rat PC12 cells to Ki for human alpha2 adrenoceptor expressed in CHO cell membranes; type: cell-based
# Sequence of Nischarin (Q4G017 whole entry): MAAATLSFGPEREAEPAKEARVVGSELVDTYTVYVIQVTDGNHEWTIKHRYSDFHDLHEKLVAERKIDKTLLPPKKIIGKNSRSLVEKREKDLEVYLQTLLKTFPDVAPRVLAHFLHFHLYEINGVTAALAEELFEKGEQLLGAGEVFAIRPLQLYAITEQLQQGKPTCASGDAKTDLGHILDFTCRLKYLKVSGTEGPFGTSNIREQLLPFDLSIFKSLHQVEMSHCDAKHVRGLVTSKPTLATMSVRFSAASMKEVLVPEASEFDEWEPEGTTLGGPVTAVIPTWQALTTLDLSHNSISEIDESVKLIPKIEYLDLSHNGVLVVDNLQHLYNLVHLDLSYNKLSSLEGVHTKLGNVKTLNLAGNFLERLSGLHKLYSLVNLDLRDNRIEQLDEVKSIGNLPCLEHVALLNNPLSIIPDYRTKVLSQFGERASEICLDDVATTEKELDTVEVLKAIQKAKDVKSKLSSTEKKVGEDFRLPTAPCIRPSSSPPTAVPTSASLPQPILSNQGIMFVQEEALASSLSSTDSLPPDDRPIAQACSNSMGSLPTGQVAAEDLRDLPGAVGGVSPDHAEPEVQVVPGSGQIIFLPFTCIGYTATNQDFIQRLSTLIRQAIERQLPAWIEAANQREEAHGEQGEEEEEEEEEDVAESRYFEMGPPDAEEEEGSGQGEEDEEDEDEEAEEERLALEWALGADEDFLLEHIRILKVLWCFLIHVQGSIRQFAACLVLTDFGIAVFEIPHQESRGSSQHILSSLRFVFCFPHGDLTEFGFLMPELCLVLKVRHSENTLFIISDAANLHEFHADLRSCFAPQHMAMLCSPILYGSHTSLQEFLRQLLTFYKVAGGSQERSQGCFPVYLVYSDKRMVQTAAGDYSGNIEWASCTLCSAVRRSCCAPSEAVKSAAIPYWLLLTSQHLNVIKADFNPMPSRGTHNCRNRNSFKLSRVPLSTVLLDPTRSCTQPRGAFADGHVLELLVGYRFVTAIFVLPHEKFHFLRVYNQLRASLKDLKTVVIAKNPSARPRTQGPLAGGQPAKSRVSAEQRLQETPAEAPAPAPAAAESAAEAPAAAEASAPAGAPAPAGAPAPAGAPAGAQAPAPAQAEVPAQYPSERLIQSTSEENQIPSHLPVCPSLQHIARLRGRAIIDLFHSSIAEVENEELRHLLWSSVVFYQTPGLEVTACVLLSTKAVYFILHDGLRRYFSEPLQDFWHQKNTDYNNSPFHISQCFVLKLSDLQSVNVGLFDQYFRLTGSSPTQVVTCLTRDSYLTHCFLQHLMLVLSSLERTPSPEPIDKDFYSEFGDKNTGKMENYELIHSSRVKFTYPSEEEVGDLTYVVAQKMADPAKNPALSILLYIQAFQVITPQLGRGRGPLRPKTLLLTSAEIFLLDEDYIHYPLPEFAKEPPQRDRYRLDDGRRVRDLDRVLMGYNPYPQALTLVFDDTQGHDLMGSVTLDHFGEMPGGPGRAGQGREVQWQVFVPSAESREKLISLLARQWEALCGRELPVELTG
Ki [3],Ki (Nischarin; read-out: Ki),SMILES,Activity (Rattus norvegicus [1]),Activity (Rattus norvegicus [2]),Activity (Rattus norvegicus [6]),Activity (Rattus norvegicus [7]),other results
> 10000 nM,–,Cc1c(Cl)cccc1/N=C1\CC(C)CN1.Cl (stereo not drawn),30%,33%,–,–,Activity (Rattus norvegicus [4]): 18%; Activity (Rattus norvegicus [5]): 30%
> 10000 nM,–,CC1CN/C(=N\c2ccc(Cl)c3c2CCC3)C1.Cl (stereo not drawn),–,–,6%,10%,–
–,14.1 nM,Clc1cccc(Cl)c1N=C1NCCN1 [CLONIDINE],–,–,–,–,–
> 10000 nM,19 nM,CC1CN/C(=N\c2cccc3c2CCC3)C1.Cl (stereo not drawn),30%,30%,–,–,Activity (Rattus norvegicus [8]): 22%; Activity (Rattus norvegicus [5]): 35%
> 2500 nM,0.2 nM,CC1CCC(Nc2ccc(I)cc2Cl)=N1 (stereo not drawn),–,–,–,–,–
> 10000 nM,73 nM,CC1CC/C(=N/c2cccc3c2CCCC3)N1.Cl (stereo not drawn),29%,10%,26%,37%,–
> 10000 nM,27 nM,Cc1c(Cl)cccc1/N=C1\CCC(C)N1.Cl (stereo not drawn),25%,30%,20%,28%,–
> 10000 nM,70 nM,Cc1cccc(/N=C2\CCC(C)N2)c1C.Cl (stereo not drawn),20%,25%,18%,25%,–
> 2240 nM,6.03 nM,CC1CC/C(=N\c2cc(N=[N+]=[N-])c(I)cc2Cl)N1 (stereo not drawn),–,–,–,–,–
> 10000 nM,–,Cc1ccc(/N=C2/CC(C)CN2)c2c1CCC2.Cl (stereo not drawn),32%,15%,22%,26%,–

# Second part, the compound before the results:
SMILES,Ki [3],Ki (Nischarin; read-out: Ki),Activity (Rattus norvegicus [1]),Activity (Rattus norvegicus [2]),Activity (Rattus norvegicus [6]),Activity (Rattus norvegicus [7]),other results
CC1CNC(Nc2c(Cl)cccc2Cl)=N1 (stereo not drawn),> 1949 nM,–,–,–,–,–,–
CC1CC/C(=N/c2cccc3c2CCC3)N1.Cl (stereo not drawn),> 10000 nM,19 nM,32%,29%,20%,37%,–
Cc1ccc(F)c(C2=NCCN2)c1,> 10000 nM,5.3 nM,–,–,–,–,–
CC1CC/C(=N/c2ccc3c(c2)CCC3)N1.Cl (stereo not drawn),–,–,inactive,inactive,4%,8%,–
CC1CC/C(=N/c2ccc(Cl)c3c2CCC3)N1.Cl (stereo not drawn),> 10000 nM,–,–,–,7%,6%,–
Cc1cccc(C)c1/N=C1/CCC(C)N1.Cl (stereo not drawn),–,–,inactive,inactive,4%,5%,–
C1COC(NC(C2CC2)C2CC2)=N1 [RILMENIDINE],180 nM,83.1 nM,–,–,–,–,Ratio Ki (CHO): 2.1
CC1CN=C(Nc2ccc(Cl)c3c2CCC3)C1 (stereo not drawn),–,0.22 nM,inactive,inactive,–,–,–
Cc1cc(F)ccc1/N=C1\CCC(C)N1.Cl (stereo not drawn),–,–,inactive,inactive,8%,6%,–
CC1CN/C(=N\c2cccc3c2CCCC3)C1.Cl (stereo not drawn),–,–,inactive,inactive,3%,5%,–
Cc1ccc(F)c(/N=C2\CCC(C)N2)c1.Cl (stereo not drawn),–,–,inactive,inactive,6%,9%,–
COc1nc(C)nc(Cl)c1N=C1NCCN1 [MOXONIDINE],–,77.8 nM,–,–,–,–,–
Cc1c(Cl)cccc1NC1=NCC(C)C1 (stereo not drawn),–,3.2 nM,–,–,–,–,Ratio Ki (CHO): > 3000
CC1CCC(Nc2ccc(Cl)c3c2CCC3)=N1 (stereo not drawn),–,2.8 nM,inactive,inactive,–,–,–
CC1CC(NC(C2CC2)C2CC2)=NC1C (stereo not drawn),> 10000 nM,–,–,–,–,–,Ki (Nischarin): 537 nM
Cc1cccc(/N=C2\CC(C)CN2)c1C.Cl (stereo not drawn),10000 nM,42 nM,25%,31%,–,–,Activity (Rattus norvegicus [8]): 20%; Activity (Rattus norvegicus [5]): 26%
CC1CN/C(=N\c2ccc3c(c2)CCC3)C1.Cl (stereo not drawn),–,–,inactive,inactive,4%,8%,–
CC1CC/C(=N/c2cc3c(cc2Cl)CCC3)N1.Cl (stereo not drawn),–,–,inactive,inactive,3%,9%,–
NC1=NCC(COc2ccccc2Br)O1 (stereo not drawn),> 10000 nM,6.4 nM,–,–,–,–,–
Cc1ccc(Cl)c(/N=C2\CCC(C)N2)c1.Cl (stereo not drawn),–,–,inactive,inactive,7%,7%,–

# From ChEMBL document CHEMBL3407341, “Synthesis and biological evaluation of 2-aryliminopyrrolidines as selective ligands for I1 imidazoline receptors: discovery of new sympatho-inhibitory hypotensive agents with potential beneficial effects in metabolic syndrome” (J Med Chem, 2015)
